Literature values in patent US9783526B2, “Control of hypoxia-inducible gene expression with oligooxopiperazine nonpeptidic helix mimetics” (New York University, priority 2012, dated 2017).

Key:
experimental animals = settings: in vivo
[1] = test system: HIF-1α C-TAD and p300/CBP

Compound	adverse effects in experimental animals (experimental animals)	inhibition of the interaction between HIF-1α C-TAD and p300/CBP [1]
CN1C(=O)[C@@]23C[C@]4([C@]56C[C@@]78SS[C@@](CO)(C(=O)N7[C@H]5Nc5ccccc56)N(C)C8=O)c5ccccc5N[C@@H]4N2C(=O)[C@]1(CO)SS3 [chaetocin]	induced coagulative necrosis, anemia, and leukocytosis	–
CN1C(=O)[C@]2(Cc3cn([C@]45C[C@@]67SS[C@@](CO)(C(=O)N6[C@H]4Nc4ccccc45)N(C)C7=O)c4ccccc34)SS[C@@]1(CO)C(=O)N2C [chetomin]	induced coagulative necrosis, anemia, and leukocytosis	inhibit the interaction
